Reference: patent publication US7122624B2, “Parathyroid hormone receptor ligands” (The United States of America as represented by the …, priority 1999, dated 2006)
Where two headings read alike, the source gives them in different places. Blank lines part the entries; values can stand above or below the compound they belong to. Non-standard residues stand in square brackets, D forms with d. Residues, ends and D or L forms follow the SMILES beside them. Tyr(3-I) = N[C@@H](Cc1ccc(O)c(I)c1)C(=O)O; Nle = CCCC[C@H](N)C(=O)O

Columns and labels:
human PTH1 receptor [1] = target: T1, human PTH1 receptor (Homo sapiens, UniProt Q03431); assay: [125I]TIP(7–39) saturation and kinetic binding to the human PTH1 receptor in HEK293 cell membranes; design: expressed in transfected cells
T1 sequence (Q03431 27-593): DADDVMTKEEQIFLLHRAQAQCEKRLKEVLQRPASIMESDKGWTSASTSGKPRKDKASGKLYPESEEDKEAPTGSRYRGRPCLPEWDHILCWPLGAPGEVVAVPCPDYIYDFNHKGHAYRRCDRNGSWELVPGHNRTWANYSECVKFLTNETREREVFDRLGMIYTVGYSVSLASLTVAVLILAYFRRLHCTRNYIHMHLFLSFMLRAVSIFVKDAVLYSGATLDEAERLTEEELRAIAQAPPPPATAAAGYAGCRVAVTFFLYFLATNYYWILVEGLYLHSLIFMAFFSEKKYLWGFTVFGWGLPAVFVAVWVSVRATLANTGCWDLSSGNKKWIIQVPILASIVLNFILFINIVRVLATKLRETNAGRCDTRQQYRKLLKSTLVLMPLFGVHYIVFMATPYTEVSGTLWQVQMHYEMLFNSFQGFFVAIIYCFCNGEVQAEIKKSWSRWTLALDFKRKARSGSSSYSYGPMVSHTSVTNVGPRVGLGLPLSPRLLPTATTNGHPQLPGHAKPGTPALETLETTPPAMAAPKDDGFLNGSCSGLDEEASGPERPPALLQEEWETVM
Method: Binding of [^125I]TIP(7–39) to HEK293 membranes expressing the PTH1 receptor (FIGS. 21 and 22) was performed using rapid filtration to separate bound and free radioligand as described in Examples, using the assay buffer described above. Incubations were carried out in 96-well polypropylene plates. The incubation mixture was transferred to a polyvinylidene fluoride filtration plate (MAHVN45, Millipore, Bedford, Mass.) and the membranes collected by rapid filtration using a Millipore Multiscreen vacuum manifold. In saturation experiments, varying concentrations of [^125I]TIP(7–39) were incubated in triplicate with 10 μg membranes in the absence or presence of 1 μM unlabeled TIP(7–39) (for measurement of total binding and non-specific binding, respectively) for 1 hour at 21° C. In radioligand association experiments, radioligand and buffer were brought to 21° C. by incubation in a water bath for 15 minutes. Similarly pre-warmed membranes were then added to the wells at various time points and the assay wells harvested simultaneously. Non-specific binding in these experiments was defined using 300 nM unlabeled TIP(7–39), incubated with membranes and radioligand for 1 minute and 60 minutes. In the experiment in FIG. 23 a second, unlabeled ligand was included in the assay incubation in order to estimate the association and dissociation rate constants of the unlabeled ligand (see below). In dissociation experiments radioligand and membranes were equilibrated for 60 minutes prior to addition of unlabeled TIP(7–39) (300 nM final concentration) at various time points. All time points were harvested simultaneously. (As a result the shorter time points of the time course were equilibrated with radioligand for between 1 and 2 hours.) Non-specific binding was defined using 300 nM unlabeled TIP(7–39), which was included in the equilibration phase of the assay.
[^125I]TIP(7–39) saturation of the PTH1 receptor was analyzed as follows: First, non-specific binding (measured in the presence of 1 μM TIP(7–39)) was estimated as a fraction of the free radioligand concentration by linear regression. The values of KD and Bmax were obtained by fitting total binding data (measured in the absence of unlabeled ligand) to the following equation using Prism 2.01:
[^125I]TIP(7–39) association data (total binding) were fitted to a bi-exponential association equation to account for association to specific and non-specific sites (FIG. 23). This procedure was used because the value of non-specific binding measured after 60 minutes was slightly greater than the value measured after 1 minute. In the analysis the equilibrium level of non-specific binding was fixed at that measured at 60 minutes. The observed association rate constant for non-specific binding was high (>2 min^−1). The observed association rate of specific radioligand (L) binding (kon(obs)) was fitted by linear regression to the equation kon(obs)=koff+kon[L] where kon and koff are the association and dissociation rate constants respectively. [^125I]TIP(7–39) dissociation data were fitted to a mono-exponential dissociation equation.
The association and dissociation rate constants of unlabeled ligands were determined using the method devised by Motulsky and Mahan, Mol Pharmacol 25, 1–9, 1984, in which association of a radiolabeled antagonist ([^125I]TIP(7–39)) is measured in the presence of a fixed concentration of the unlabeled ligand. […]

human PTH1 receptor [2] = target: T1, human PTH1 receptor; assay: cAMP accumulation in HEK293 cells stably expressing the human PTH1 receptor (293PTH1); type: cell-based; design: expressed in transfected cells
PTH2 receptor [3] = target: T2, PTH2 receptor (Homo sapiens, UniProt P49190); assay: cAMP accumulation in HEK293 cells stably expressing the human PTH2 receptor (293PTH2); type: cell-based; design: expressed in transfected cells; conditions: 1 μM peptide
T2 sequence (P49190 25-550): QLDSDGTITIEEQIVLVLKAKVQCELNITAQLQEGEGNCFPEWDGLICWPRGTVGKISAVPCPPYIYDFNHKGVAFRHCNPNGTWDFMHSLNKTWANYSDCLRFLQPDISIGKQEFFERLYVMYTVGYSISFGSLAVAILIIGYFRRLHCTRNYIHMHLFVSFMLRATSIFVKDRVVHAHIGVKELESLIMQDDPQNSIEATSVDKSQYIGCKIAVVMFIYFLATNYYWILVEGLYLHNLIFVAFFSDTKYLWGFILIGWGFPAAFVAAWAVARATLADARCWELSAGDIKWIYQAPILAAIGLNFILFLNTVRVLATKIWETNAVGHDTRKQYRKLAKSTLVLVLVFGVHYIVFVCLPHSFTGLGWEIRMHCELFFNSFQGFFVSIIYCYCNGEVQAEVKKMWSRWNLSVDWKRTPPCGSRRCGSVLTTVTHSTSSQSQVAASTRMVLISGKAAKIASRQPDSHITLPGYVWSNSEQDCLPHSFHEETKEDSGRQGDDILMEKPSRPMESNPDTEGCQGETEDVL

human PTH1 receptor [4] = target: T1, human PTH1 receptor; design: expressed in transfected cells; host or cells: COS-7 (transient); conditions: cited from earlier work
[5] = target: T3, C-terminal hemaglutinin-tagged human PTH1 receptor (Homo sapiens, UniProt Q03431); assay: cAMP accumulation in COS-7 cells expressing a C-terminal hemaglutinin-tagged human PTH1 receptor; type: cell-based; conditions: COS-7; five experiments; read-out: Emax, % of the maximal response to rPTH(1–34)
T3 sequence (Q03431 27-593): T1 sequence (Q03431 27-593)

PTH2 receptor [6] = target: T2, PTH2 receptor; assay: cAMP accumulation in COS-7 cells transiently expressing the human PTH2 receptor; type: cell-based; design: expressed in transfected cells; host or cells: COS-7 (transient); conditions: COS-7
Source text: Cell culture supplies were obtained from Life Technologies (Frederick, Md.) except for fetal bovine serum which was from Sigma (St. Louis, Mo.).
The constructs containing the cDNA sequences of the human PTH2 receptor and β-galactosidase have been previously described.
All peptides were purchased from either Bachem (Torrance, Calif.) or Peninsula Laboratories (Belmont, Calif.). The letters ‘b,’ ‘r’ and ‘h’ designate the peptide sequence as bovine, rat and human, respectively. […] [α-^32P]dCTP was purchased from ICN Biomedicals (Costa Mesa, Calif.). Bovine hypothalamic extract was prepared by acid extraction, gel-filtration and reverse-phase HPLC as previously described. […] Antagonist inhibitory potency was examined by measuring the concentration-dependence of rPTH(1–34)-stimulated cAMP accumulation in the presence and absence of antagonist.
Statistical comparison of two sample means was evaluated using the two-tailed Student's t-test. […] Antagonist inhibitory potency was quantified using the pA2, value, the negative logarithm of the concentration of antagonist that produces a two-fold decrease of agonist EC50. This was calculated using the following equation: pA2=((EC50/EC50′)−1)−log [antagonist]

koff (human PTH1 receptor [1]; directly measured from dissociation time course, read-out: dissociation rate constant (k2) (converted)): 0.00085 s⁻¹ | koff (human PTH1 receptor [1]; estimate from the plot of kon(obs) vs. concentration of radioligand, read-out: dissociation rate constant (converted)): 0.00128 s⁻¹ | kon (human PTH1 receptor [1]; held constant in Equation 4 analysis, read-out: association rate constant (k1) (converted)): 1.48e+06 M⁻¹ s⁻¹ | Bmax (human PTH1 receptor [1]; saturation experiments, n=3): 1.3 ± 0.1 pmol/mg
SMILES: CSCC[C@H](NC(=O)[C@H](Cc1ccc(O)c(I)c1)NC(=O)[C@H](CO)NC(=O)[C@H](CC(N)=O)NC(=O)[C@H](CC(C)C)NC(=O)[C@H](Cc1c[nH]c2ccccc12)NC(=O)[C@H](Cc1c[nH]cn1)NC(=O)[C@H](CCCNC(=N)N)NC(=O)[C@H](CCCNC(=N)N)NC(=O)[C@H](CCC(=O)O)NC(=O)[C@H](CC(C)C)NC(=O)[C@H](C)NC(=O)[C@H](C)NC(=O)[C@H](CC(C)C)NC(=O)[C@H](CC(C)C)NC(=O)[C@H](CCCNC(=N)N)NC(=O)[C@H](C)NC(=O)[C@H](CCCNC(=N)N)NC(=O)[C@H](CCC(=O)O)NC(=O)[C@H](CCCNC(=N)N)NC(=O)[C@H](Cc1ccccc1)NC(=O)[C@H](C)NC(=O)[C@H](C)NC(=O)[C@@H](N)CC(=O)O)C(=O)N[C@@H](Cc1c[nH]cn1)C(=O)N[C@@H](CCCCN)C(=O)N[C@@H](CC(C)C)C(=O)N[C@@H](CC(C)C)C(=O)N[C@H](C(=O)N[C@@H](CC(C)C)C(=O)N[C@@H](CC(=O)O)C(=O)N[C@@H](C)C(=O)N1CCC[C@H]1C(=O)O)C(C)C [[^125I]TIP(7–39)] (H-DAAFRERARLLAALERRHWLNS[Tyr(3-I)]MHKLLVLDAP-OH; N-terminus and C-terminus assumed)

stimulation of cAMP accumulation (human PTH1 receptor [2]; 1 μM peptide): approximately 50 fold | stimulation of cAMP accumulation (PTH2 receptor [3]): approximately 50 fold
SMILES: CC[C@H](C)[C@H](NC(=O)[C@H](CCC(=O)O)NC(=O)[C@H](CO)NC(=O)[C@@H](NC(=O)[C@H](C)N)C(C)C)C(=O)N[C@@H](CCC(N)=O)C(=O)N[C@@H](CC(C)C)C(=O)N[C@@H](CCSC)C(=O)N[C@@H](Cc1c[nH]cn1)C(=O)N[C@@H](CC(N)=O)C(=O)N[C@@H](CC(C)C)C(=O)NCC(=O)N[C@@H](CCCCN)C(=O)N[C@@H](Cc1c[nH]cn1)C(=O)N[C@@H](CC(C)C)C(=O)N[C@@H](C)C(=O)N[C@@H](CO)C(=O)N[C@H](C(=O)N[C@@H](CCC(=O)O)C(=O)N[C@@H](CCCNC(=N)N)C(=O)N[C@@H](CCSC)C(=O)N[C@@H](CCC(N)=O)C(=O)N[C@@H](Cc1c[nH]c2ccccc12)C(=O)N[C@@H](CC(C)C)C(=O)N[C@@H](CCCNC(=N)N)C(=O)N[C@@H](CCCCN)C(=O)N[C@@H](CCCCN)C(=O)N[C@@H](CC(C)C)C(=O)N[C@@H](CCC(N)=O)C(=O)N[C@@H](CC(=O)O)C(=O)N[C@H](C(=O)N[C@@H](Cc1c[nH]cn1)C(=O)N[C@@H](CC(N)=O)C(=O)N[C@@H](Cc1ccccc1)C(=O)O)C(C)C)C(C)C [PTH]

activation of the PTH1 receptor (human PTH1 receptor [2]; 293PTH1 cells, cAMP): not detected | koff (human PTH1 receptor [1]; estimated by Equation 4 from [125I]TIP(7–39) association, read-out: dissociation rate constant of unlabeled ligand (converted)): 0.0005 s⁻¹ | Emax [5]: 26 ± 4% | EC50 (PTH2 receptor [6]; activation of adenylyl cyclase, figures in brackets): 5.2 nM | agonist character (PTH2 receptor [6]; cAMP): partial agonists | Emax (PTH2 receptor [6]; read-out: Emax, % of response to 1 μM hPTH(1-34), intrinsic activity): 37 ± 3%
SMILES: CCCC[C@H](NC(=O)[C@H](CO)NC(=O)[C@H](CO)NC(=O)[C@H](CC(C)C)NC(=O)[C@H](Cc1c[nH]cn1)NC(=O)[C@H](CCCCN)NC(=O)CNC(=O)[C@H](CC(C)C)NC(=O)[C@H](CC(N)=O)NC(=O)[C@H](Cc1c[nH]cn1)NC(=O)[C@H](CCCC)NC(=O)[C@H](Cc1ccccc1)NC(=O)[C@H](CCC(N)=O)NC(=O)[C@@H](NC(=O)[C@H](CCC(=O)O)NC(=O)[C@@H](N)CO)[C@@H](C)CC)C(=O)N[C@@H](CCC(=O)O)C(=O)N[C@@H](CCCNC(=N)N)C(=O)N[C@H](C(=O)N[C@@H](CCC(=O)O)C(=O)N[C@@H](Cc1c[nH]c2ccccc12)C(=O)N[C@@H](CC(C)C)C(=O)N[C@@H](CCCNC(=N)N)C(=O)N[C@@H](CCCCN)C(=O)N[C@@H](CCCCN)C(=O)N[C@@H](CC(C)C)C(=O)N[C@@H](CCC(N)=O)C(=O)N[C@@H](CC(=O)O)C(=O)N[C@H](C(=O)N[C@@H](Cc1c[nH]cn1)C(=O)N[C@@H](CC(N)=O)C(=O)N[C@@H](Cc1ccc(O)cc1)C(N)=O)C(C)C)C(C)C [[Nle^8,18, Tyr^34]bPTH(3-34), [Nle^8,18, Tyr^34]bPTH(3–34) amide] (H-SEIQF[Nle]HNLGKHLSS[Nle]ERVEWLRKKLQDVHNY-NH2; N-terminus assumed)
Bmax (human PTH1 receptor [4]; homologous displacement experiments): 0.7 pmol/mg | Kd (human PTH1 receptor [4]; reported previously): 2 nM
